Results taken from US11247973B2 (The University of Durham, priority 2016, dated 2022).
Read-outs that look alike come from different tables or passages of the source.

Key:
[1] = system: RSV; assay: Cytopathic effect (CPE) assay; type: cell-based; details: human respiratory syncytial virus; A549 cells and HeLa cells, 6-8 days, DMEM+2% FCS; read-out: CPE IC50
From the text: (§1) Cells were obtained from ATCC and the virus preparation was subjected to one round of centrifugation through a 40% (V/V) glycerol to remove any interferon produced from infected cells. Growth medium was Dulbecco's modified Eagle's medium (DMEM) with 10% (v/v) foetal calf serum (FCS), Viral maintainance medium was DMEM+2% (v/v) FCS.
Cytopathic Effect (CPE) Assay—IC50:
(§2) A549 cells and HeLa cells were used to seed a set of 96 well plates grown until 50% confluent, a 2 fold serial dilution of the compound was performed on each cell line with DMSO (only) as control starting with 100 μM of the compound. Medium used was DMEM+2% FCS (normal medium for viral growth).
(§3) Cells were allowed to grow for 6-8 days to mimic a TCID50 assay after which cell viability was determined by adding Almar blur (similar to XT) and reading at 600 nm (excitation 540 nm).

[2] = Cell cytotoxicity CC50 assay (A549 and HeLa cells); type: cell-based; details: human, 6-8 days, DMEM+2% FCS
From the text: as §1
Cell Cytotoxicity—CC50 (Concentration at which 50% Cell Toxicity is Observed):
as §2, §3

[3] = system: RSV; assay: Plaque reduction assay in Vero cells (standard and time of addition); type: cell-based; details: human respiratory syncytial virus
[4] = MTT cell toxicity assay; type: cell-based; details: African green monkey, Vero cells
Description: Vero cells were seeded in 96-well plates in a volume of 100 μL Optimem media supplemented with 1% FBS at a concentration of 1×10^4 cells per well. After an overnight incubation at 37° C. in a humidified 5% CO2 atmosphere, the monolayer of cells should be approximately 90% confluent. Compound 2 was titrated in pre-warmed Serum Free (SF) Optimem in a U-bottom 96 well plate. For compounds in a DMSO solution, titration in 100% DMSO was performed first and each concentration added individually to a 2× final concentration at 4% DMSO. Media was then removed from cells and replaced with titrated compounds (100 μl/well). Cells were incubated at 37° C. in a humidified 5% CO2 atmosphere for 48 hours.
The MTT solution on Optimem (4 mg/ml) was prepared and 2 ul added to each well before it was incubated for 2 hours at 37° C. in a humidified 5% CO2 atmosphere. Media was then removed from the cells and DMSO added (50 ul/well). Plates were placed on a shaker prior to reading in a Spectromax at 570 nm. Data was normalised relative to untreated controls (1% DMSO only) and CC50 values determined using non-linear regression analysis with Graphpad Prism software.

[5] = Microsomal clearance, rat; type: in vitro ADME; details: male, Sprague Dawley, pooled liver microsomes
Description: (§4) Pooled human liver microsomes (pooled male and female), pooled rat liver microsomes (male Sprague Dawley rats) and pooled dog liver microsomes (male Beagle dog) are purchased from a reputable commercial supplier and stored at −80° C. prior to use.
(§5) Microsomes (final protein concentration 0.5 mg/mL), 0.1 M phosphate buffer pH 7.4 and compound 2 (final substrate concentration 3 μM; final DMSO concentration 0.25%) are pre-incubated at 37° C. prior to the addition of NADPH (final concentration 1 mM) to initiate the reaction. The final incubation volume is 50 μL. A control incubation is included for each compound tested where 0.1 M phosphate buffer pH 7.4 is added instead of NADPH (minus NADPH). Two control compounds are included with each species. All incubations are performed singularly for each test compound.
(§6) Compounds are incubated for 0, 5, 15, 30 and 45 min. The control (minus NADPH) is incubated for 45 min only. The reactions are stopped by transferring 25 μL of incubate to 50 μL methanol at the appropriate time points. […] Following protein precipitation, the sample supernatants are combined in cassettes of up to 4 compounds, internal standard is added and samples analysed by LC-MS/MS. From a plot of ln peak area ratio (compound peak area/internal standard peak area) against time, the gradient of the line is determined.

[6] = Microsomal clearance, dog; type: in vitro ADME; details: male, Beagle, pooled liver microsomes
Description: as §4, §5, §6

[7] = Microsomal clearance, human; type: in vitro ADME; details: both, pooled liver microsomes
Description: as §4, §5, §6

[8] = Mouse in vivo pharmacokinetic assay; parameters: species or system male CD-1 mice
Description: Pharmacokinetic evaluation of compound 2 was performed in male CD-1 mice following intravenous (IV) and oral (PO) administration. For intravenous administration the compound was formulated in solution in 40:60 DMA:saline and was administered at 1 mg/kg via the tail vein. For oral administration the compound was formulated in suspension in water containing 1% methylcellulose and 0.1% Tween80, and was administered at 10 mg/kg by oral gavage. Blood samples were taken by cardiac puncture under terminal anaesthesia (isoflurane) at ten timepoints between 1 minute and 24 hours following IV administration, and at nine timepoints between 5 minutes and 24 hours following PO administration (n=3 per timepoint). Plasma was immediately obtained by centrifugation, and the resulting samples frozen until analysis. Samples, along with a calibration curve prepared by spiking the compound into control plasma, were subsequently prepared for quantitative analysis by precipitation of plasma proteins with acetonitrile. Analysis was by ultra high performance liquid chromatography (Agilent 1290 system) coupled to time of flight mass spectrometry, using electrospray ionisation (Agilent 6550 system). Pharmacokinetic parameters were determined by non-compartmental analysis of mean concentration data using Phoenix WinNonlin v6.4.

O=C(CNc1c(F)c(F)nc(F)c1F)N[C@H]1N=C(c2ccccc2)c2ccccc2NC1=O [Compound 2]
IC50 [1]: 625 nM
CC50 [2]: 100 µM
IC50 ([3]; compound added during infection only, read-out: Plaque IC50 (during infection only)): 10900 nM
IC50 ([3]; compound added post infection only, read-out: Plaque IC50 (post infection only)): 2000 nM
IC50 ([3]; standard plaque reduction assay, read-out: Plaque IC50): 1100 nM
CC50 at 48 h [4]: 63 µM
microsomal CLint at 3 μM ([5]; pH 7.4, 0.5 mg/mL protein, read-out: Intrinsic clearance - rat): 29.2 µL/min/mg
half-life at 3 μM ([5]; pH 7.4, read-out: t½ - rat): 47.5 min
microsomal CLint at 3 μM ([6]; pH 7.4, 0.5 mg/mL protein, read-out: Intrinsic clearance - dog): 7.05 µL/min/mg
half-life at 3 μM ([6]; pH 7.4, read-out: t½ - dog): 197 min
microsomal CLint at 3 μM ([7]; pH 7.4, 0.5 mg/mL protein, read-out: Intrinsic clearance - human): 52.6 µL/min/mg
half-life at 3 μM ([7]; pH 7.4, read-out: t½ - human): 26.3 min
Pharmacokinetic assessment in words ([8]; IV and PO): orally bioavailable with moderate clearance
F ([8]; PO 10 mg/kg vs IV 1 mg/kg): 54.8%
Vd ([8]; male, CD-1, plasma, IV 1 mg/kg): 3.65 L/kg
clearance ([8]; male, CD-1, plasma, IV 1 mg/kg): 63.1 mL/min/kg
half-life ([8]; male, CD-1, plasma, IV 1 mg/kg, read-out: IV t½): 59 min
Cmax ([8]; male, CD-1, plasma, PO 10 mg/kg): 349 ng/mL
half-life ([8]; male, CD-1, plasma, PO 10 mg/kg, read-out: PO t½): 132 min
